Like-named read-outs stand apart in the source and are kept apart here.
Legend:
HSV = details: published work; cited from earlier work
HSV-2 [1] = assay: HSV-2 viral yield-reduction assay in Vero cells; assay type: cell-based, HSV-2 (strain 186); details: for EC50: read-out: ED50 HSV-2
Description: (§1) Three types of antiviral assay were used for HSV studies. For plaque-elimination, Vero cells (70000 per cm^2) were infected with 50-100 PFU for 30 minutes with occasional agitation. The inoculate was replaced with medium containing 1% (v/v) fetal calf serum and supplemented with test agents as indicated (see below). After two days of culture, cells were processed using crystal violet staining and plaques were scored by visual examination (FIG. 3). For examination of anti-HSV activity in parallel cultures during biochemical experiments, the progeny virus obtained from cells and from the culture medium at 23 hours post-infection was determined by limiting dilution on Vero cells (FIG. 5A). Macroscopic viral plaques were scored after two days of incubation in medium containing 1% (w/v) carboxymethylcellulose and 0.5% (v/v) fetal calf serum. For ED50 measurements, the concentration of compound that reduced a single-cycle of viral yield by 50% relative to the control and under the specified condition was interpolated from dose-response graphs (FIG. 4, Table 1). Over the course of ten independent experiments, the mean cell-associated viral yield was 180 PFU per cell (SD=80) and 10 PFU per cell (SD=5) for HSV-1 and HSV-2 respectively. The percent viral release (into the culture medium) was 16 (SD=7) and 0.9 (SD=0.6) for HSV-1 and HSV-2 respectively. These virologic parameters were independent of viral load and serum concentration.

HSV-1 = HSV-1 viral yield-reduction assay in Vero cells; assay type: cell-based, HSV-1 (KOS); details: for EC50: read-out: ED50 HSV-1
Description: as §1

[2] = Vero cell growth inhibition (Sulforhodamine B protein-dye binding); assay type: cell-based, African green monkey; details: African green monkey
Description: (§2) The effect of compounds on host cell replication (CC50), was measured using Sulforhodamine B-staining and the spectrophotometric method originally developed for the NCIs's in vitro anti-cancer drug screening program (P. Skehan et al., J. Natl. Cancer. Inst. 82, 1107-1112 (1990)). The CC50 value is the concentration of compound that inhibited actively replicating cells by 50% of control respectively after two days of continuous treatment.

Vero = assay: as above; assay type: cell-based, African green monkey; details: for percent inhibition observed at the highest concentration tested, Vero growth: number in parenthesis
Description: as §2

HSV-1 proteins = assay: HSV-1 viral protein accumulation (Western immunoblot); assay type: cell-based; details: 10 micromolar, 16 hours, 2% (v/v) serum, FIG. 5D
[3] = HEL cell growth inhibition (Sulforhodamine B protein-dye binding); assay type: cell-based, human; details: human, cell growth inhibition, two days of continuous treatment
Description: as §2

HCMV = HCMV plaque-elimination assay in HEL cells; assay type: cell-based, HCMV (Towne); details: for EC50: read-out: ED50 HCMV; for activity against HCMV, in words: quantitative comparison, Table 1
Description: Virus and cell growth inhibition assays. Established virus culture techniques were used (E.-S. Huang, and T Kowalnick, Diagnosis of human cytomegalovirus infection: laboratory approaches, in Molecular Aspects of Human Cytomegalovirus Diseases (Becker,Y., Daria, G., and Huang, E.-S. eds.), Springer-Verlag, Berlin, pp. 225-255 (1993); Akanitapichat et al., Antiviral Research 45: 123-134 (2000)) but with the following modifications. For the HCMV plaque-elimination assay, HEL cells were plated in standard medium at 60,000 per cm^2 and infected the following day with 50-100 PFU HCMV for 90 minutes with occasional agitation. The inoculate was replaced with maintenance medium containing 5% (v/v) fetal calf serum and test agents as indicated (see below). After an additional 6-10 days of culture, cells were fixed with formal saline (10% formalin in phosphate-buffered saline; PBS), stained with 0.1% (w/v) toluidine blue in PBS and plaques were scored using an inverted light microscope at 40x magnification (FIGS. 2A and 3). For ED50 determination, the value was interpolated from dose-response data and is the concentration of compound that reduced plaque formation by 50% relative to control under the specified condition.

HSV-2 [4] = assay: HSV-2 plaque-elimination assay in Vero cells; assay type: cell-based, HSV-2 (strain 186); details: fixed concentration, five micromolar (1, 2, ACV ten micromolar; PFA 250 micromolar), Vero cells, FIG. 3
Description: as §1

[5] = tested on: HSV-2 late viral proteins; assay: HSV-2 late viral protein synthesis (pulse labeling, SDS-PAGE, phosphor-imaging); assay type: cell-based; details: twenty micromolar, 0.1 PFU, 2% (v/v) serum
Description: Analysis of HSV proteins. Viral protein synthesis was examined using pulse labeling, SDS-PAGE gel separation and phosphor-imaging. Vero cells were infected and treated under conditions specified below and in FIG. 5. After 17 hours of infection, 10 μCi/mL TRAN^35S-LABEL ™ was added directly to culture medium and incubation continued for 30 more minutes. Radio-labeled cell cultures were carefully washed with PBS pre-warmed to 37° C. then lysed at 2,000,000 cells per mL in the same buffer supplemented with 2% (w/v) SDS. After denaturing cell lysates in Laemmli loading buffer, total proteins recovered from 30,000 cells were separated using either 8% (FIG. 5B) or 10% (FIG. 5D) PAGE-SDS gels (U. Laemmli, Nature, 227,680-685 (1970)). Proteins were transferred to nitrocellulose and the synthesized proteins were visualized and quantified using a STORM phosphorimager (Molecular Devices, Sunnyvale CA) and the supplied ImageQuant software according to the manufacturers instructions (FIG. 5, panels B and C). Protein load between samples was compared qualitatively by visual examination of filters stained with India-Ink. A complementary approach for assessing drug effect on viral proteins involved immune detection on a Western-blot using conditions and reagents described previously (Akanitapichat and Bastow, supra 2002).

HEL = HEL cell growth inhibition (Sulforhodamine B protein-dye binding); assay type: cell-based, human
Description: as §2

[6] = quantitative comparison, Table 1
[7] = cell growth inhibition, two days of continuous treatment
[8] = number in parenthesis, highest concentration tested, NA = no activity observed

Compound: O=c1c2cc(O)ccc2[nH]c2cc(O)cc(O)c12 [1,3,7-trihydroxyacridone]
- selectivity of anti-HSV action (HSV): 3 fold

Compound: Nc1nc2c(ncn2COCCO)c(=O)[nH]1 [ACV, Acyclovir]
- activity against HSV-2 relative to HSV-1 (HSV-2 [1]): four-fold less active
- EC50 (HSV-2 [1]; Human alphaherpesvirus 2, viral yield-reduction, 1 PFU per cell in 5% (v/v) serum, Vero cells): 800 ± 100 nM
- EC50 (HSV-1; Human alphaherpesvirus 1, viral yield-reduction, 1 PFU per cell in 5% (v/v) serum, Vero cells): 200 nM
- CC50 at 2 days ([2]; Vero cells, cell growth inhibition, two days of continuous treatment, read-out: CC50 Vero): > 200 µM
- percent inhibition observed at the highest concentration tested, Vero growth (Vero): 41%
- effect on HSV-1 viral protein accumulation (HSV-1 proteins): abolished
- CC50 at 2 days ([3]; HEL cells): > 500 µM
- EC50 (HCMV; Human betaherpesvirus 5, prevention of microscopic viral plaques, HEL cells): > 200 µM
- activity against HCMV, in words (HCMV): inactive

Compound: COc1cc(O)c2c(=O)c3cccc(O)c3n(C)c2c1OC [Citrusinine-I]
- activity against HSV-2, in words (HSV-2 [1]; [6]): selective inhibitor
- HSV-2 replication remaining (HSV-2 [1]; twenty micromolar, 0.1 PFU, 22 hours, 2% (v/v) serum): about 10 % of control
- inhibition of HSV-2 replication in plaque-elimination screen (HSV-2 [4]): HSV plaque-size was uniformly smaller in the presence of Citrusinine I but the number of visible plaques was not reduced
- activity against HSV-1 (KOS), in words (HSV-1; [6]): inactive
- CC50 (Vero; [7]): 27 ± 4 µM
- HSV-2 late protein synthesis remaining [5]: about 10 % of control
- CC50 (HEL; [7]): 41 ± 5 µM
- activity against HCMV, in words (HCMV): selective inhibitor

Compound: O=c1c2cccc(Cl)c2[nH]c2cc(O)cc(O)c12 [Compound 1, 5-chloro-1,3-dihydroxyacridone]
- EC50 (HSV-2 [1]; Human alphaherpesvirus 2, Vero): 3800 ± 300 nM
- EC50 (HSV-1; Human alphaherpesvirus 1, Vero): 4300 ± 800 nM
- CC50 at 2 days ([2]; cell growth inhibition, two days of continuous treatment, read-out: CC50 Vero): > 50 µM
- percent inhibition observed at the highest concentration tested, Vero growth (Vero): 23%
- selectivity of anti-HSV action (HSV): 26 fold
- CC50 at 2 days [3]: > 50 µM
- percent inhibition observed at the highest concentration tested, HEL growth (HEL; [8]): 18%
- EC50 (HCMV; Human betaherpesvirus 5, HEL): > 50 µM
- percent inhibition observed at the highest concentration tested, HCMV (HCMV; [8]): 25%

Compound: COc1ccc2[nH]c3cc(O)cc(O)c3c(=O)c2c1 [Compound 3, 1,3-Dihydroxy-7-methoxyacridone]
- inhibition of HSV-2 replication in plaque-elimination screen (HSV-2 [4]): inactive
- inhibition of HCMV replication in plaque-elimination screen (HCMV; fixed concentration, five micromolar (1, 2, ACV ten micromolar; PFA 250 micromolar), HEL cells, FIG. 3): inactive

Compound: COc1cc(O)c2c(=O)c3cc(O)ccc3[nH]c2c1 [Compound 4, 1,7-Dihydroxy-3-methoxyacridone]
- inhibition of HSV-2 replication in plaque-elimination screen (HSV-2 [4]): only inhibited HSV replication
- CC50 at 2 days ([2]; Vero cells, read-out: CC50 against Vero replication): 25 µM

Source: patent US20050049273A1, “Acridone derivatives as anti-herpesvirus agents” (priority 2003, published 2005)
